The results in this text go back to patent US12491220B2, “Compositions containing indole-derived metabolites and methods of use thereof” (Imvela Corp., priority 2024, dated 2025).

Assay [1] has as its target T1, AhR (Homo sapiens, UniProt P35869).
T1 sequence (P35869 11-848): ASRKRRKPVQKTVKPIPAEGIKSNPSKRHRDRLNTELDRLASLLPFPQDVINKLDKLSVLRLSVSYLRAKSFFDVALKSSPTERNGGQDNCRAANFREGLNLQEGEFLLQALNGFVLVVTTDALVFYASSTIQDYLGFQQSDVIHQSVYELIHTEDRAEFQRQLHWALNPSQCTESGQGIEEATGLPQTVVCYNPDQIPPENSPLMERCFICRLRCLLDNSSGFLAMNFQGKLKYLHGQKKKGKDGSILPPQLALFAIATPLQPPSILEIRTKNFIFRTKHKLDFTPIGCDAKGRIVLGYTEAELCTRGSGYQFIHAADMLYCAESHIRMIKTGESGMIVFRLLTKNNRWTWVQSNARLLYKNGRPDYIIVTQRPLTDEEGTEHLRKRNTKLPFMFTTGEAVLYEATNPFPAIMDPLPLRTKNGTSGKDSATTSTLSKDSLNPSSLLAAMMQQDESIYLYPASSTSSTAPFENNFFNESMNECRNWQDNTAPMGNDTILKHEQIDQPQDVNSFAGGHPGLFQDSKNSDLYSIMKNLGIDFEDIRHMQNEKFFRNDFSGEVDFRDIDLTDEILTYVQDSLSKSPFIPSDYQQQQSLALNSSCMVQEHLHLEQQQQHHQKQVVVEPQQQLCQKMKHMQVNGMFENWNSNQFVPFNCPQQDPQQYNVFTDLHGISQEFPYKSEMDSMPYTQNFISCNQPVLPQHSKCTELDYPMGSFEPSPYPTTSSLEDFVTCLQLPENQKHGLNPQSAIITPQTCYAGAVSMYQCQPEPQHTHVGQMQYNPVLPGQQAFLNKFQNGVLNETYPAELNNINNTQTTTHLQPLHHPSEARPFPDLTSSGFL
The assay is described as follows: AhR activation in human cell line expressing AhR, in vitro luminescence (Example 1). The format is cell-based. The conditions noted are these: 200 PM, FIG. 5, normalized to methylcholanthrene. How it is done: (§1) The utility of ILA and IAld in multiple host was validated by an in vitro assay. Human or canine cell lines expressing AhR were exposed to ILA or IAld at […], and AhR activation was assayed using in vitro luminescence.

Assay [2] has as its target T2, AhR (Canis lupus familiaris, UniProt A0A8I3RSX6).
T2 sequence (A0A8I3RSX6 1-853): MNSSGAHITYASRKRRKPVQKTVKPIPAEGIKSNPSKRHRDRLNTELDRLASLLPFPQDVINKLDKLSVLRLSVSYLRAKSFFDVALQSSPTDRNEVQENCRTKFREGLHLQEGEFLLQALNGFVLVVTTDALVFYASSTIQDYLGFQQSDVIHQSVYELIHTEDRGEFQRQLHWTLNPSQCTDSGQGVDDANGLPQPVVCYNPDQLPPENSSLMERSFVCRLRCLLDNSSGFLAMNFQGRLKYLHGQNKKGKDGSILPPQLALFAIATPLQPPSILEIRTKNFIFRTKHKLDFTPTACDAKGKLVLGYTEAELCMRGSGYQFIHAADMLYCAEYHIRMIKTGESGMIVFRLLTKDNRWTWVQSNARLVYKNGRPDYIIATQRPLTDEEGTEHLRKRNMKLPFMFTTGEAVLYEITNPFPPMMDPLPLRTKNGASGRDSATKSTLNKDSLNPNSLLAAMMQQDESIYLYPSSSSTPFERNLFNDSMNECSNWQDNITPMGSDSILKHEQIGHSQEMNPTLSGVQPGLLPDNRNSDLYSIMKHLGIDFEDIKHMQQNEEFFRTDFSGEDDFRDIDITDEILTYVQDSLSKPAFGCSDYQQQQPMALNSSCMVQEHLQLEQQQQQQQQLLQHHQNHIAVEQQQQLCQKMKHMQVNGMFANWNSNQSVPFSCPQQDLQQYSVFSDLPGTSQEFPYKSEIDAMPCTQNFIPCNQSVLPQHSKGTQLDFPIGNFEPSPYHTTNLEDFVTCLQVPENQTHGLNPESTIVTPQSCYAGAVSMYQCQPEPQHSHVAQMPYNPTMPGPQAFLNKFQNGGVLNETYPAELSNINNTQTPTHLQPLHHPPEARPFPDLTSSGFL
Put plainly: AhR activation in canine cell line expressing AhR, in vitro luminescence (Example 1). It is filed as cell-based. The conditions noted are these: 200 PM, FIG. 5, normalized to methylcholanthrene. How it is done: as §1

As to `O=Cc1c[nH]c2ccccc12` [IAld, indole-3-carboxaldehyde], the AhR activation result on AhR [1] and at AhR [2] was “AhR activation was observed” each time.
Regarding `O=C(O)C(O)Cc1c[nH]c2ccccc12` (stereo not shown) [ILA, indole-3-lactic acid], the AhR activation entry on AhR [1] and on AhR [2] was “AhR activation was observed” throughout.
